Molecules are shown by their SMILES.

The subject of one assay is TRPV1. The note with it: CHL at concentrations up to 250 μM; cited from earlier work.
Another assay addresses hTRPV1 (Homo sapiens, UniProt Q8NER1). Nature of the assay: FLIPR calcium influx assay, hTRPV1 WT in HEK293T. The format is cell-based. The note with it: 3.33 µM capsaicin.
The target of the next assay is hTRPV1 S512F (Homo sapiens, UniProt Q8NER1, S512F). The assay is described as follows: FLIPR calcium influx assay, hTRPV1 S512F mutant. As to conditions: also unresponsive to pH. The format is cell-based.
Sequence of hTRPV1 S512F (Q8NER1 whole entry S512F): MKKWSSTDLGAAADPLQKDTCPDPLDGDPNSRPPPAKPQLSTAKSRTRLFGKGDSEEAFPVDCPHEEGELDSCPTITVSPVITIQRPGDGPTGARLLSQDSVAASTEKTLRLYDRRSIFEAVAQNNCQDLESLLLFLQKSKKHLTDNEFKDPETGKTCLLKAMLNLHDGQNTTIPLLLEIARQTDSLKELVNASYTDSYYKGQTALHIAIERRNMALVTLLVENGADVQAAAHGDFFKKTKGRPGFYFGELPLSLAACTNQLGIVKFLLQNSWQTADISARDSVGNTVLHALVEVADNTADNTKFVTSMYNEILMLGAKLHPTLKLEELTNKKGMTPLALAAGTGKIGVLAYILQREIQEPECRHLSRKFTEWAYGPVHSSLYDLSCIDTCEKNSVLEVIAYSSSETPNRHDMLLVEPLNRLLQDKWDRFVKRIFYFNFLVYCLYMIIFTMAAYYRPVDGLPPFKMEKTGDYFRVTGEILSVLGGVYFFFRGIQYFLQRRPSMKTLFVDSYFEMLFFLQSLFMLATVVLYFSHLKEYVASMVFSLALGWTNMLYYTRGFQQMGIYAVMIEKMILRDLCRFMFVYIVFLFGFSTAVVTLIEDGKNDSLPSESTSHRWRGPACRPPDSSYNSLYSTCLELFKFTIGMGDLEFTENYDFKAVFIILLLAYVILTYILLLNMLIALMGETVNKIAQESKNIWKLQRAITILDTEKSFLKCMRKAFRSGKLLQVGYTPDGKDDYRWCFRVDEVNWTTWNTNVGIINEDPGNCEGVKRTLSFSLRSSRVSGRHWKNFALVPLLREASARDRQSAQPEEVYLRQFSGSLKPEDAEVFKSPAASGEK

Sequence of hTRPV1 (Q8NER1 whole entry): as the sequence (Q8NER1 whole entry S512F) above, with F512S counted along it

For the molecule `CC(C)CCC[C@@H](C)[C@H]1CC[C@H]2[C@@H]3CC=C4C[C@@H](O)CC[C@]4(C)[C@H]3CC[C@]12C` [CHL, cholesterol], in the assay on TRPV1, the “inhibition of TRPV1 currents evoked by 2-APB” value is given as “not inhibited”.

Turning to `COc1cc(CNC(=O)CCCC/C=C/C(C)C)ccc1O` [capsaicin], on hTRPV1, the “activation of hTRPV1 by capsaicin” value is given as 80–90%. Moreover, on hTRPV1 S512F, the “response of mutant to capsaicin” value is “unresponsive”.

(Values after PMC11303535 (Nature Communications, 2024).)
